Measured values as given in US7033772B1, “Methods of identifying inhibitors of fatty acid transport proteins (FATP)” (Millennium Pharmaceuticals, Inc., priority 1998, dated 2006).
Like-named read-outs stand apart in the source and are kept apart here.

How the values were obtained:
FATP4 = molecular target: T1, FATP4 (Homo sapiens, UniProt Q6P1M0); test: Competition of Bodipy-FA uptake by FATP4 expressing cells (FACS); format: cell-based; conditions: for inhibition at 100 µM: read-out: Competition (inhibition of Bodipy-FA uptake)
T1 construct: expressed in transfected cells; host or cells: 293 cells (human kidney), stably transfected with pIRES-neo-hsFATP4, G418-selected
Protocol: Bodipy-FA uptake assays using FACS were performed, adapted to a 96-well format. LCFA uptake assays with enterocytes or with stably transfected 293 cells were done as follows. Mixed micelles of radiolabeled FA (NEN) and taurocholate (Sigma) in HBS were generated by brief sonication at 37° C. […] Final taurocholate concentration was 5 mM. Cells were incubated for the indicated amount of time at 37° C. The assay was stopped by transferring the cells onto filter paper followed by extensive washes with ice-cold HBS containing 0.1% BSA using a cell harvester (Brandell). Incorporated oleate was then determined by β-scintillation counting (Beckman).

enterocytes [1] = test: Uptake of radiolabeled substrates by isolated primary enterocytes; format: cell-based, mouse; conditions: for Uptake, Enterocytes: 10 μM substrate in HBS with 5 mM taurocholate, rate over 4 min; for Transport of the substrate by isolated primary enterocytes (in words): compared with transfected 293 cells
Protocol: (§1) Several of the cell lines with the highest amount of Bodipy-FA uptake as well as isolated primary enterocytes were used to measure the uptake of radiolabeled FAs.
(§2) Bodipy-FA uptake assays using FACS were performed, adapted to a 96-well format. LCFA uptake assays with enterocytes or with stably transfected 293 cells were done as follows. Mixed micelles of radiolabeled FA (NEN) and taurocholate (Sigma) in HBS were generated by brief sonication at 37° C. Equal volumes of cells and micelle solution were mixed, resulting in a final FA concentration of 25 μM for antisense assays and 10 μM for substrate specificity assays. Final taurocholate concentration was 5 mM. Cells were incubated for the indicated amount of time at 37° C. The assay was stopped by transferring the cells onto filter paper followed by extensive washes with ice-cold HBS containing 0.1% BSA using a cell harvester (Brandell). Incorporated oleate was then determined by β-scintillation counting (Beckman).

293 cells = test: Uptake of radiolabeled substrates by control (vector) 293 cells; format: cell-based, human; conditions: 10 μM substrate in HBS with 5 mM taurocholate; rate over 4 min
Protocol: as §1, §2

hsFATP4 = molecular target: T2, hsFATP4 (Homo sapiens, UniProt Q6P1M0); test: Uptake of radiolabeled substrates by 293 cells stably expressing FATP4; format: cell-based; conditions: for Uptake, 293 Cells Stably Expressing FATP4: 10 μM substrate in HBS with 5 mM taurocholate, rate over 4 min; for Uptake, FATP4 specific: FATP4-expressing minus control 293 cells, 10 μM substrate, 5 mM taurocholate; for Effect of hsFATP4 expression on uptake of the substrate (in words): stably transfected 293 cells vs vector
T2 construct: expressed in transfected cells; host or cells: 293 cells (human kidney), stably transfected with pIRES-neo-hsFATP4, G418-selected
Protocol: Using a mammalian expression vector, we generated 40 stable […] cell lines expressing hsFATP4 and 20 cell lines transfected with a control plasmid.
as §1, §2

FATP4 mRNA = test: Oleate uptake by isolated mouse enterocytes after incubation with FATP4 oligonucleotides; format: cell-based; conditions: 100 μM oligonucleotide; for Inhibition of fatty acid (oleate) uptake over time: 48 h, 25 μM oleate, FIG. 40
enterocytes [2] = test: 35S-methionine uptake by cultured enterocytes after oligonucleotide treatment (specificity control); format: cell-based, mouse; conditions: 100 μM oligonucleotide, 48 h; FIG. 42
Protocol: As a further control experiment, the uptake of oleate was measured along with the uptake of methionine in the same cultured enterocytes. Antisense oligonucleotide, mismatch sequence oligonucleotide, or no oligonucleotide was added to a concentration of 100 μM to cultures of enterocytes. After incubation for 48 hours, the uptake of both ^3H-labeled oleate and ^35S-labeled methionine was assayed. Fatty acid uptake is at the left side of the paired bars; methionine uptake is on the right side of the paired bars.

[3] = 5 μM Bodipy-FA, 100 μM competitor (20-fold molar excess), 100% = effect of 200 μM lauric acid

T2 sequence (Q6P1M0 whole entry): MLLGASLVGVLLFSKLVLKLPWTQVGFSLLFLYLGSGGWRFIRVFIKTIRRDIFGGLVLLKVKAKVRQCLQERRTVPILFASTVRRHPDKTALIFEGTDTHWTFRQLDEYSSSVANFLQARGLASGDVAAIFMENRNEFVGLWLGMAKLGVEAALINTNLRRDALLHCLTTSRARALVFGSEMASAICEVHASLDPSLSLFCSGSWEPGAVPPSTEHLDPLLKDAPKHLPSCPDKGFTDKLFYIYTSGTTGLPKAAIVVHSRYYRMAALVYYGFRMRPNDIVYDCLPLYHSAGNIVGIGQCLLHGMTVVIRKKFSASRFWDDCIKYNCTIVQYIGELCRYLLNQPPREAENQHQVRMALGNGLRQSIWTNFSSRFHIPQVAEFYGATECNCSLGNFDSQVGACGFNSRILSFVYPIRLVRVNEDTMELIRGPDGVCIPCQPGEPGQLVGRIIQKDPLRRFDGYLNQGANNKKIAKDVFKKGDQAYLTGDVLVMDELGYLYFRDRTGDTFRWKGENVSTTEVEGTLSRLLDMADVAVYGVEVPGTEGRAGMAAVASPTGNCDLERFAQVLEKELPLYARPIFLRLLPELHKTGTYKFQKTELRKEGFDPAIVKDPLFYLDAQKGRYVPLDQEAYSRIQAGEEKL
T1 sequence (Q6P1M0 whole entry): as above

CCCCCCCCCCCCCCCCCCCCCCCCCC(=O)O [Cerotic Acid]
inhibition at 100 µM (FATP4; [3]): 70 to 100%

CCCCCCCCCCCCCCCCCCCC(=O)O [Arachidic Acid]
inhibition at 100 µM (FATP4; [3]): 70 to 100%

CCCCCCCCCCCCCCCCCC(=O)OC [Stearic Acid Methyl Ester]
inhibition at 100 µM (FATP4): 0 to 30%

CC(C)CCC[C@@H](C)[C@H]1CC[C@H]2[C@@H]3CC=C4C[C@@H](O)CC[C@]4(C)[C@H]3CC[C@]12C [Cholesterol]
Uptake, Enterocytes (enterocytes [1]): 531 pmol/min 10^6 cells
Transport of the substrate by isolated primary enterocytes (in words) (enterocytes [1]): more robust transport
Uptake, 293 Cells Control (293 cells): 319 pmol/min 10^6 cells
Uptake, 293 Cells Stably Expressing FATP4 (hsFATP4): 345 pmol/min 10^6 cells
Uptake, FATP4 specific (hsFATP4): 26 pmol/min 10^6 cells
Effect of hsFATP4 expression on uptake of the substrate (in words) (hsFATP4): not

CCCCCCCCCCCCCCCC(=O)OC [Palmitic Acid Methyl Ester]
inhibition at 100 µM (FATP4; [3]): 0 to 30%

CC1=C(C/C=C(\C)CCC[C@H](C)CCC[C@H](C)CCCC(C)C)C(=O)c2ccccc2C1=O [3-Phytylamenadione (Vitamin K1), 3-Phytylamenadione]
Competition (inhibition of Bodipy-FA uptake) (FATP4; [3]): − (0%-30% inhibition by the indicated substance)

CCCCCCCC/C=C\CCCCCCCCOC(=O)CCCCCCC/C=C\CCCCCCCC [Oleic Acid Oley Ester]
Competition (inhibition of Bodipy-FA uptake) (FATP4; [3]): − (0%-30% inhibition by the indicated substance)

FATP4-S2: Sense control oligo GGAGCCTCTCTGGTGGGGG (SEQ ID NO:105) (chemistry not given here)
Inhibition of fatty acid (oleate) uptake over time (FATP4 mRNA): did not significantly influence the uptake

CCCCCCCC(=O)O [Octanoate, Caprylic Acid]
Uptake, Enterocytes (enterocytes [1]): 5 pmol/min 10^6 cells
Transport of the substrate by isolated primary enterocytes (in words) (enterocytes [1]): absence of transport
Uptake, 293 Cells Control (293 cells): 0 pmol/min 10^6 cells
inhibition at 100 µM (FATP4): 0 to 30%
Uptake, 293 Cells Stably Expressing FATP4 (hsFATP4): 0 pmol/min 10^6 cells
Uptake, FATP4 specific (hsFATP4): 0 pmol/min 10^6 cells
Effect of hsFATP4 expression on uptake of the substrate (in words) (hsFATP4): not

CCCCCC(=O)O [Caproic Acid]
inhibition at 100 µM (FATP4): 0 to 30%

CCCCCCCCCCCCCCCCCCCCCCCC(=O)O [Lignoceric Acid]
inhibition at 100 µM (FATP4): 70 to 100%

CCCCCCCC/C=C\CCCCCCCC(=O)OCC [Oleic Acid Ethyl Ester]
inhibition at 100 µM (FATP4; [3]): 0 to 30%

CCCC(=O)O [Butyrate, Butyric Acid]
Uptake, Enterocytes (enterocytes [1]): 73 pmol/min 10^6 cells
Transport of the substrate by isolated primary enterocytes (in words) (enterocytes [1]): absence of transport
Uptake, 293 Cells Control (293 cells): 0 pmol/min 10^6 cells

CCCCCCCC/C=C\CCCCCCCC(=O)O[C@H]1CC[C@@]2(C)C(=CC[C@H]3[C@@H]4CC[C@H]([C@H](C)CCCC(C)C)[C@@]4(C)CC[C@@H]32)C1 [Cholesteryl Oleate]
Competition (inhibition of Bodipy-FA uptake) (FATP4; [3]): − (0%-30% inhibition by the indicated substance)

CCCCCCCC/C=C\CCCCCCCC(=O)SCCNC(=O)CCNC(=O)[C@H](O)C(C)(C)COP(=O)(O)OP(=O)(O)OC[C@H]1O[C@@H](n2cnc3c(N)ncnc32)[C@H](O)[C@@H]1OP(=O)(O)O [Oleoyl CoA]
inhibition at 100 µM (FATP4; [3]): 0 to 30%

CCCCC[C@H](O)/C=C/[C@H]1[C@H](O)CC(=O)[C@@H]1C/C=C\CCCC(=O)O [Prostaglandin E2]
Competition (inhibition of Bodipy-FA uptake) (FATP4; [3]): − (0%-30% inhibition by the indicated substance)

CC1=C(/C=C/C(C)=C/C=C/C(C)=C/C(=O)O)C(C)(C)CCC1 [Retinoic Acid (Pro-Vitamin A), Retinoic Acid]
inhibition at 100 µM (FATP4; [3]): 30 to 50%

CCCCCCCCCCCCCC(=O)O [Myristic Acid]
inhibition at 100 µM (FATP4): 70 to 100%

CCCCCCCC/C=C\CCCCCCCC(=O)O [Oleate, Oleic Acid]
Uptake, Enterocytes (enterocytes [1]): 117 pmol/min 10^6 cells
Transport of the substrate by isolated primary enterocytes (in words) (enterocytes [1]): preference
Uptake, 293 Cells Control (293 cells): 662 pmol/min 10^6 cells
Competition (inhibition of Bodipy-FA uptake) (FATP4; [3]): ++ (70%-100% inhibition)
Uptake, 293 Cells Stably Expressing FATP4 (hsFATP4): 1122 pmol/min 10^6 cells
Uptake, FATP4 specific (hsFATP4): 459 pmol/min 10^6 cells
Effect of hsFATP4 expression on uptake of the substrate (in words) (hsFATP4): accelerated the uptake

CCCCCCCCCC(=O)O [Capric Acid]
inhibition at 100 µM (FATP4; [3]): 70 to 100%

Ergocalciferol [Ergocalciferol (Vitamin D2)]
Competition (inhibition of Bodipy-FA uptake) (FATP4; [3]): − (0%-30% inhibition by the indicated substance)

CCCCC/C=C\C/C=C\CCCCCCCC(=O)O [Linolate, Linoleic Acid]
Uptake, Enterocytes (enterocytes [1]): 116 pmol/min 10^6 cells
Transport of the substrate by isolated primary enterocytes (in words) (enterocytes [1]): more robust transport
Uptake, 293 Cells Control (293 cells): 640 pmol/min 10^6 cells
inhibition at 100 µM (FATP4; [3]): 70 to 100%
Uptake, 293 Cells Stably Expressing FATP4 (hsFATP4): 673 pmol/min 10^6 cells
Uptake, FATP4 specific (hsFATP4): 33 pmol/min 10^6 cells
Effect of hsFATP4 expression on uptake of the substrate (in words) (hsFATP4): not

Tocopherol [Tocopherol (Vitamin E)]
Competition (inhibition of Bodipy-FA uptake) (FATP4; [3]): − (0%-30% inhibition by the indicated substance)

FATP4-AS2: Antisense oligo CCCCCACCAGAGAGGCTCC (SEQ ID NO:103), complementary to nucleotides 10 to 28 of the mouse FATP4 coding sequence (chemistry not given here)
Inhibition of fatty acid (oleate) uptake over time (FATP4 mRNA): ~50%
Inhibition of oleate uptake over a 5 minute interval (FATP4 mRNA; 48 h incubation, FIG. 41): ~50%
Methionine (amino acid) uptake (enterocytes [2]): not influenced

CCCCCCCCCCCCCCCCCC(=O)O [Stearic Acid]
inhibition at 100 µM (FATP4; [3]): 50 to 70%

CCCCC/C=C\C/C=C\C/C=C\C/C=C\CCCC(=O)O [Arachidonate]
Uptake, Enterocytes (enterocytes [1]): 0 pmol/min 10^6 cells
Uptake, 293 Cells Control (293 cells): 3 pmol/min 10^6 cells

CCCCCCCCCCCCCCCC(=O)O [Palmitate, Palmitic Acid]
Uptake, Enterocytes (enterocytes [1]): 3036 pmol/min 10^6 cells
Transport of the substrate by isolated primary enterocytes (in words) (enterocytes [1]): preference
Uptake, 293 Cells Control (293 cells): 564 pmol/min 10^6 cells
inhibition at 100 µM (FATP4; [3]): 70 to 100%
Uptake, 293 Cells Stably Expressing FATP4 (hsFATP4): 1695 pmol/min 10^6 cells
Uptake, FATP4 specific (hsFATP4): 1131 pmol/min 10^6 cells
Enhancement of rate of uptake by hsFATP4 expression over 293 cells transfected with vector alone (hsFATP4; stably transfected 293 cells, FIG. 97): approximately 3 fold
